What all share (type): cell-based
Assay [1] addresses T1, GPR68 (Homo sapiens, UniProt Q15743). The experiment in a line: GloSensor cAMP assay (Gs), allosteric operational model fitting. Also on record: expressed in transfected cells; host or cells: HEK293T, transient (PEI), co-transfected with GloSensor cAMP plasmid. The procedure: GPR68-mediated cAMP signaling was measured using GloSensor cAMP assays as published previously ([Huang et al., 2015], [Yu et al., 2019]) with modifications as indicated below. Calcium- and magnesium-free HBSS was supplemented with different organic buffer reagents for different pH solutions, 20 mM 2-(N-morpholino)ethanesulfonic acid (MES, Alfa Aesar) for pH 6.00 – 6.70, 20 mM 4-(2-hydroxyethyl)-1-piperazineethanesulfonic acid (HEPES, Fisher) for pH 6.80 – 8.20, and 20 mM (tris(hydroxymethyl)methylamino)propanesulfonic acid (TAPS) for pH 8.30 – 8.60. The phosphodiesterase (PDE) inhibitor Ro 20-1724 (10 μM final, Cayman Chemical) was included in pH buffers to eliminate potential effect of PDE […]. HEK293T cells were transfected with a modified polyethylenimine (PEI, Polysciences) transfection method ([Longo et al., 2013]). For a 15-cm dish of HEK293T cells with 25 mL growth medium, 8 μg receptor DNA and 8 μg GloSensor DNA (Promega) were mixed in 1 mL of Opti-MEM medium followed by addition of 80 μL PEI reagents. The mixture was added to cells after 20 min incubation at room temperature. Overnight transfected cells were plated in poly-L-lysine (Sigma) coated 384-well white clear bottom plates (Greiner Bio-One, #781098) using DMEM (Corning) + 1% dialyzed FBS (Omega Scientific) for at least 6 h (up to 24 h). Cells were removed of medium before receiving 20 μL/well of 3.5 mM luciferin (Goldbio) prepared in assay buffer (HBSS, 20 mM TAPS, pH 8.40, 10 μM Ro 20-1724) for 1 h at 37°C. Luciferin loading solutions were removed and premixed drug solutions at desired pH conditions were added to cells (25 μL/well). Luminescence was measured 25-30 min after drug application. Results were normalized (basal and maximum responses in the absence of modulator were set to be 0 and 100%) and pooled for analysis using GraphPad Prism.
All of the other parameters, including allosteric affinity cooperativity (α), allosteric modulator binding affinity KB, orthosteric agonist (protons) efficacy τA, system maximal response, and slope factor n were all globally shared for all datasets for each modulator. […] We therefore used an allosteric index, log(αβ/KB) ([Kenakin, 2017a]), which contains both allosteric binding affinity and cooperativity, to quantify the overall allosteric activity.
Target sequence in this assay (Q15743 whole entry): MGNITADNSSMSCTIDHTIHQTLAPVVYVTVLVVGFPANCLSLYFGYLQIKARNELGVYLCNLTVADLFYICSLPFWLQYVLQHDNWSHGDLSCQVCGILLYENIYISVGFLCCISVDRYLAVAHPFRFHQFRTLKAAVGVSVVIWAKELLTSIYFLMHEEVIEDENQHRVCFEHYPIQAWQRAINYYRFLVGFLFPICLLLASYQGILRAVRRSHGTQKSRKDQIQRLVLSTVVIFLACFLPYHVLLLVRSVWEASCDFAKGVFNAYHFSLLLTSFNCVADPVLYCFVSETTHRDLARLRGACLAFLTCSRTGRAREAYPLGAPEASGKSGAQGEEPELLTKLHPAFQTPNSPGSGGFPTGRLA
In general terms: cAMP levels reflect the balance of adenylyl cyclase and phosphodiesterase activity.

The next assay has as its target T2, HA-OGR1 (GPR68) (Homo sapiens, UniProt Q15743).
T2 construct: HA; expressed in transfected cells
The experiment in a line: Ca2+ mobilization assay (Fluo-4). Particulars: GPR68, data from resynthesized peptide, mean, SEM and n; for Emax: read-out: Emax, Ca2+ mobilization (% iono); for EC50: read-out: pEC50, Ca2+ mobilization (% iono) (converted). (In general: Calcium flux is commonly read through the fluorescence of an indicator in the cells.)

Assay [2] has as its target T1, GPR68. In words: Real-time receptor internalization (TR-FRET), concentration-response. Also on record: hIL-2Ra signal peptide (N); expressed in transfected cells. Particulars: GPR68, mean, SEM and n. Put shortly:
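Doxycycline-induced SNAP-tagged receptor cells had surface receptors labelled with Lumi4-Tb and fluorescein-O-acetic acid added. TR-FRET internalization after peptide addition was recorded for 60 min at 37°C (ex 340, em 520/615 nm). Area under the curve, normalized to plate average, gave concentration-response curves.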
Target sequence in this assay (Q15743 2-365 limits assumed): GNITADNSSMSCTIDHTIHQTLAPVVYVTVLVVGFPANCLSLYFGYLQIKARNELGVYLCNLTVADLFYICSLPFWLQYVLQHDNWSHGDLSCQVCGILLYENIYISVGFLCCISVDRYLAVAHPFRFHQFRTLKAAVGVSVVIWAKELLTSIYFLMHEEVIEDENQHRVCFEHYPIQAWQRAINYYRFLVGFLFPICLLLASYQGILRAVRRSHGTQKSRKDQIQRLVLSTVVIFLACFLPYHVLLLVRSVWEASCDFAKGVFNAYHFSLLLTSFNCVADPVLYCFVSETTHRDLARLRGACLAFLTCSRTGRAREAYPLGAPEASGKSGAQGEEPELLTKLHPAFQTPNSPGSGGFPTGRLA

The mark [3] stands for this setting: GPR68, pH 7.4, tested as PAM, data from resynthesized peptide, mean, SEM and n.

Experimental findings from publication PMC6838683, “Discovery of Human Signaling Systems: Pairing Peptides to G Protein-Coupled Receptors” (Cell, 2019) are described below.

Positions of bridges follow the written chain, without caps; N, C: chain ends. Residues, ends and D or L forms follow the SMILES beside them.

T2 sequence (Q15743 whole entry): as the sequence (Q15743 whole entry) above

As a reminder, the Emax is the greatest response seen or fitted, relative to the assay's reference. Regarding `CC[C@H](C)[C@H](NC(=O)[C@H](CCCNC(=N)N)NC(=O)[C@H](C)NC(=O)CNC(=O)[C@H](CCCCN)NC(=O)[C@H](CCCNC(=N)N)NC(=O)[C@@H](NC(=O)[C@H](C)NC(=O)[C@@H]1CSSC[C@H](NC(=O)[C@H](CCSC)NC(=O)[C@@H]2CCCN2C(=O)[C@@H](NC(=O)[C@H](CCC(N)=O)NC(=O)CNC(=O)[C@@H](N)Cc2ccc(O)cc2)C(C)C)C(=O)N[C@@H](CC(=O)O)C(=O)N[C@@H](C)C(=O)NCC(=O)N[C@@H](CCC(=O)O)C(=O)N[C@@H](CCC(N)=O)C(=O)N1)C(C)C)C(N)=O` [CART(42-89)_(9-28)] (H-YGQVPMCDAGEQCAVRKGARI-NH2; disulfide 7-13; N-terminus assumed), at GPR68 [1] (setting [3]), the “Emax, cAMP (fold over basal, pH 7.4)” value was 25.2 fold over basal. Also, the EC50 was 4.57 µM at GPR68 [1] (GPR68, pH 7.4, tested as PAM, data from resynthesized peptide, mean, SEM and n, read-out: pEC50, cAMP (fold over basal, pH 7.4) (converted)); 3.31 µM on HA-OGR1 (GPR68); 3.55 µM at GPR68 [2] (read-out: pEC50, Internalization (AUC) (converted)). Also, on HA-OGR1 (GPR68), the Emax was found to be 79.3%. Further, the “Emax, Internalization (AUC)” value at GPR68 [2] amounted to 9.4.
Molecule `CC(C)C[C@H](NC(=O)[C@@H]1CCCN1C(=O)[C@H](Cc1ccccc1)NC(=O)[C@H](C)NC(=O)[C@H](CCC(=O)O)NC(=O)[C@H](C)NC(=O)[C@H](CO)NC(=O)[C@H](CCC(=O)O)NC(=O)[C@H](CC(N)=O)NC(=O)[C@H](CCC(=O)O)NC(=O)[C@H](C)NC(=O)[C@@H](NC(=O)[C@H](CC(N)=O)NC(=O)[C@@H]1CCCN1C(=O)[C@H](Cc1ccc(O)cc1)NC(=O)[C@@H](NC(=O)[C@H](CCCCN)NC(=O)[C@@H](NC(=O)[C@@H]1CCCN1C(=O)[C@H](CCCNC(=N)N)NC(=O)[C@@H](N)CCCNC(=N)N)C(C)C)C(C)C)C(C)C)C(=O)N[C@@H](CCC(=O)O)C(=O)N[C@@H](Cc1ccccc1)C(=O)O` [Corticotropin_(17-40)] (H-RRPVKVYPNVAENESAEAFPLEF-OH; N-terminus and C-terminus assumed) gave an EC50 at GPR68 [1] of 7.41 µM. The “Emax, cAMP (fold over basal, pH 7.4)” value at GPR68 [1] (setting [3]) was determined as 24.2 fold over basal. Besides, at HA-OGR1 (GPR68), the Emax came to 63.3% and the EC50 is 1.82 µM. For the same molecule, at GPR68 [2], the “Emax, Internalization (AUC)” value is reported as 4.7 and the “pEC50, Internalization (AUC)” value is given as “Response >1uM”.
